Patent US20100029654A1, “CARDIOVASCULAR COMPOSITIONS AND USE OF THE SAME FOR THE TREATMENT OF ALZHEIMER'S DISEASE” (MOUNT SINAI SCHOOL OF MEDICINE, priority 2006, published 2010)
Counter-ions that a name gives are not always drawn. Like-named read-outs stand apart in the source and are kept apart here.

Assays:
Aβ1-40 = Aβ1-40 content in conditioned medium of primary cortico-hippocampal neuron cultures from Tg2576 mice (ELISA; primary and secondary dose-response screening); format: cell-based, mouse; details: for activity at 100 µM: 24 h, read-out: Ab1-40 (% of ctl); for activity at 100 µM / Ab1-40 (% of ctl): drug 100 μM; for reduced Aβ1-40: <85% of ctl; for EC50: read-out: EC50 (molar) Aβ1-40
Summary of the method: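 Primary cortico-hippocampal neurons from embryonic Tg2576 mice were plated at 1.0×10^5 cells per well on poly-D-lysine-coated 96-well plates in Neurobasal with 2% B27, 0.5 mM L-glutamine and 1% penicillin-streptomycin. Cultures received drug in 1% DMSO, and Aβ1-40 in the conditioned medium was measured by BioSource ELISA 24 hours after treatment, relative to vehicle controls.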

Aβ1-42 [1] = assay: Aβ1-42 content in conditioned medium of primary cortico-hippocampal neuron cultures from Tg2576 mice (ELISA; primary and secondary dose-response screening); format: cell-based, mouse; details: for Ab1-42 (% of ctl) / activity at 100 µM: drug 100 μM; for reducing Aβ1-42: <85% of ctl; for activity at 100 µM: Mus musculus, Neuron, 24 h, read-out: Ab1-42 (% of ctl)
Summary of the method: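 This screen tested cardiovascular drugs for Aβ-lowering in Tg2576 embryonic cortico-hippocampal neuron cultures plated at 1.0×10^5 cells per well in poly-D-lysine-coated 96-well plates with Neurobasal/B27 medium. Drugs at 100 μM were added directly to the medium in duplicate, with 1% DMSO alone as the control. Conditioned medium was then collected, and its Aβ1-42 level was quantified with BioSource ELISA kits.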

Aβ1-42 [2] = assay: as above; format: cell-based, mouse; details: for activity at 100 µM / EC50: Mus musculus, 24 h; for activity at 100 µM: primary screening, drug 100 μM, Tg2576 neuron cultures, table sorted by Aβ1-42, read-out: Ab1-42 (% of ctl); for EC50: Neuron, read-out: EC50 (molar) Aβ1-42
[3] = test system: primary cortico-hippocampal neuron cultures; assay: MTT in primary screening
[4] = test system: primary cortico-hippocampal neuron cultures; assay: lactate dehydrogenase (LDH) activity assay in parallel neuron cultures; details: for LDH at E-5M % of change: drug at E-5M
Experimental: For in vitro treatments drugs available from “The Spectrum Collection” in stocks of 10 mM in DMSO were applied directly to cultures to the desired concentrations (final 1% DMSO); control primary neuron cultures from Tg2576 embryos were treated with vehicle resulting in a final 1% DMSO.
Cell viability was assessed using a commercial available LDH assay kit according to the manufacture's instruction (Promega).

[5] = Mus musculus, primary screening, Tg2576 neuron cultures, table sorted by Aβ1-42
[6] = Primary Screening, table sorted by Aβ1-40
[7] = primary screening, table sorted by Aβ1-42
[8] = Mus musculus, Neuron, Primary Screening, table sorted by Aβ1-40
[9] = Mus musculus, Neuron, primary screening, Tg2576 neuron cultures, table sorted by Aβ1-42
[10] = secondary dose-response screening 0.01-100 μM, 24 hours
[11] = primary screening, Tg2576 neuron cultures, table sorted by Aβ1-42
[12] = Mus musculus, Neuron, secondary dose-response screening 0.01-100 μM, 24 hours
[13] = conditioned medium of primary cortico-hippocampal neuron cultures from Tg2576 embryos, 24 hours after treatment, relative to vehicle (1% DMSO) control

Row | Structure (SMILES) | activity at 100 µM (Aβ1-40; [5]) [%] | Ab1-40 (% of ctl) (Aβ1-40; [6]) | reduced Aβ1-40 (Aβ1-40; primary screening) | Ab1-42 (% of ctl) (Aβ1-42 [1]; [6]) | reducing Aβ1-42 (Aβ1-42 [1]; primary screening) | activity at 100 µM (Aβ1-42 [2]) [%] | MTT (% of ctl) [3, 6] | MTT (% of ctl) [3, 7] | LDH (% of ctl) [4, 6] | LDH (% of ctl) [4, 7] | activity at 100 µM (Aβ1-40; [8]) [%] | activity at 100 µM (Aβ1-40; [9]) [%] | activity at 100 µM (Aβ1-42 [1]; [6]) [%] | activity at 100 µM (Aβ1-42 [1]; [11]) [%] | EC50 (Aβ1-42 [2]; [10]) [nM] | LDH at E-5M % of change [4] [%] | also measured
1 | C[N+](C)(C)CCCCCC[N+](C)(C)C [Hexamethonium Bromide] | 84.8 | 84.8 % of ctl | reduced Aβ1-40 | 72.6 % of ctl | useful in reducing Aβ1-42 | 72.6 | 92.1 % of ctl | 92.1 % of ctl | 99.7 % of ctl | 99.7 % of ctl | – | – | – | – | – | – | –
2 | COC(=O)[C@@H]1[C@H]2C[C@H]3c4[nH]c5ccccc5c4CCN3C[C@@H]2CC[C@@H]1O [Yohimbine Hydrochloride] | – | – | reduced Aβ1-40 | – | useful in reducing Aβ1-42 | – | 82.7 % of ctl | 82.7 % of ctl | 107.8 % of ctl | 107.8 % of ctl | 66.2 | 66.2 | 68.9 | 68.9 | 0.00708 | 6.0 | EC50 (molar) Aβ1-40 (Aβ1-40; [10]): no fit
3 | COC(=O)[C@H]1[C@H]2C[C@@H]3c4[nH]c5cc(OC)ccc5c4CCN3C[C@H]2C[C@@H](OC(=O)c2cc(OC)c(OC)c(OC)c2)[C@@H]1OC [Reserpine] | – | – | reduced Aβ1-40 | – | useful in reducing Aβ1-42 | – | 87.2 % of ctl | 87.2 % of ctl | 157.8 % of ctl | 157.8 % of ctl | 24.7 | 24.7 | 38.7 | 38.7 | 902000 | −3.4 | EC50 (Aβ1-40; [12]): 56600 nM
4 | Cc1cc(C(C)(C)C)cc(C)c1CC1=NCCN1 [Xylometazoline Hydrochloride] | 66.6 | 66.6 % of ctl | reduced Aβ1-40 | 71.8 % of ctl | useful in reducing Aβ1-42 | 71.8 | 88.2 % of ctl | 88.2 % of ctl | 110.8 % of ctl | 110.8 % of ctl | – | – | – | – | – | – | –
5 | COC(=O)C1=C(C)NC(C)=C(C(=O)OC)C1c1ccccc1[N+](=O)[O-] [Nifedipine] | – | – | – | – | – | – | 98.7 % of ctl | 98.7 % of ctl | 76.1 % of ctl | 76.1 % of ctl | 73.4 | 73.4 | 90.6 | 90.6 | 73.6 | 12.0 | EC50 (Aβ1-42 [2]; [13]): 73.6 nM
6 | CC(CCc1ccccc1)NCC(O)c1ccc(O)c(C(N)=O)c1 (stereo not drawn) [Labetalol Hydrochloride] | – | – | reduced Aβ1-40 | – | – | – | 93.0 % of ctl | 93.0 % of ctl | 164.0 % of ctl | 164.0 % of ctl | 84.9 | 84.9 | 106 | 106 | 719 | −5.0 | EC50 (Aβ1-40; [12]): 4.06 nM; EC50 (Aβ1-42 [2]; [13]): 719 nM
7 | COc1cc2c3cc1Oc1c(OC)c(OC)cc4c1[C@@H](Cc1cccc(c1)Oc1ccc(c(O)c1)C[C@@H]3N(C)CC2)N(C)CC4 [Berbamine Hydrochloride] | 119 | 119.1 % of ctl | – | 150.6 % of ctl | – | 151 | 97.6 % of ctl | 97.6 % of ctl | 129.1 % of ctl | 129.1 % of ctl | – | – | – | – | – | – | –
8 | CC[C@@H](C)C(=O)O[C@H]1[C@H](O)[C@H]2[C@@H](CN3C[C@@H](C)CC[C@H]3[C@@]2(C)O)[C@@H]2C[C@]34O[C@]5(O)[C@@H](OC(=O)[C@](C)(O)[C@@H](C)O)CC[C@@]3(C)[C@@H]5[C@@H](OC(C)=O)[C@@H](OC(C)=O)[C@H]4[C@@]21O (stereo in doubt) [Protoveratrine B] | – | 61.8 % of ctl | reduced Aβ1-40 | 93.3 % of ctl | – | – | 58.5 % of ctl | 58.5 % of ctl | 729.8 % of ctl | 729.8 % of ctl | – | – | – | – | – | −2.5 | Ab1-40 (% of ctl) (Aβ1-40; [11]): 61.8 % of ctl; EC50 (Aβ1-40; [10]): 6730 nM; Ab1-42 (% of ctl) (Aβ1-42 [1]; [11]): 93.3 % of ctl; EC50 (molar) Aβ1-42 (Aβ1-42 [2]; [10]): no fit
